From patent US5366958A, “Localized delivery using fibronectin conjugates” (The Liposome Company, Inc., priority 1993, dated 1994)

How the values were obtained:
[1] = type: in vivo, mouse (female Swiss Webster); conditions: intra-articular, 2 ul, normalized to maximum possible value of 100%
Procedure: For this example control SPLVs were prepared as described in Section 4.3. using the following formulation: 100 mg EPC, 3.7 mg PE, and 10 mg indomethacin were dissolved in chloroform and then dried down to a film. The indomethacin was entrapped in the SPLVs by resuspending the film in ether, adding the aqueous phase and sonicating while evaporating. Trace amounts of radiolabeled ^14 C-indomethacin were incorporated to quantify retention of drug in joints of injected test animals.
Twenty-five female Swiss Webster mice were anesthetized with 50 mg/kg pentobarbitol and divided into 5 treatment groups. Group 1 was treated with unentrapped ^14 C-indomethacin (trace amount) in PBS buffer solution. Group 2 was treated with ^14 C-indomethacin entrapped in SPLVs (control SPLVs). Group 3 was treated with fibronectin-modified control SPLVs (non-covalent association) prepared by incubation of the SPLV-entrapped ^14 C-indomethacin with 0.3 mg fibronectin (FN, Seragen, Inc., Boston, Mass.; or Collaborative Research, Inc., Lexington, Mass.) for 2 hours before the SPLVs were repeatedly washed to remove unincorporated materials. Groups 4 and 5 were treated with SPLVs in which fibronectin was covalently attached to the liposomes. […] Two drops of glacial acetic acid were then added and samples were dark adapted over night before radioactivity was determined.

[2] = ocular application; cited from earlier work

Row | Compound | % Total 14C-Indomethacin Remaining in Joint, 5 Hours ([1]; 5 hours post-injection) [%] | % Total 14C-Indomethacin Remaining in Joint, 24 Hours ([1]; 24 hours post-injection) [%] | effectiveness in treating recurrent corneal erosion [2]
1 | COc1ccc2c(c1)c(CC(=O)O)c(C)n2C(=O)c1ccc(Cl)cc1 [Unentrapped 14C-Indomethacin, indomethacin] | 4.7 | 1.0 | –
2 | fibronectin | – | – | effective
